# Active and inactive are the calls of the source. The rule behind the calls is not given here.
# Experiments:
# [1] = Toxicity in fasted female Sprague-Dawley rat assessed as body weight at 148 mg/kg, IG measured after 7 days (reference value: 188.2 +/- 9.2 g); format: organism-based; details: in vivo, po, 168 h, time 7 day
# Pseudomonas aeruginosa = test: Antibacterial activity against multidrug-resistant Pseudomonas aeruginosa 126 clinical isolate assessed as bacterial growth inhibition incubated for 24 hrs by CLSI based broth microdilution method; format: functional
# Escherichia coli [2] = test: Induction of cell damage in Escherichia coli ATCC 25922 assessed as fold increase in extracellular ATP concentration at MIC incubated for 30 mins by fluorescence based analysis relative to control; format: functional; details: 0.5 h
# Mycoplasmopsis synoviae = test: Anti-mycoplasma activity against Mycoplasmopsis synoviae MS-MVU1852-NCTC10124 assessed as bacterial growth inhibition incubated for 7 days; format: functional; details: MS-MVU1852-NCTC10124, 168 h, time 7 day
# [3] = Toxicity in fasted male Sprague-Dawley rat assessed as relative liver weight ratio at 148 mg/kg, IG measured for 14 days (reference value: 3.616 +/- 0.286); format: organism-based; details: in vivo, po, 336 h, time 14 day
# Escherichia coli [4] = test: Inhibition of biofilm formation of Escherichia coli ATCC 25922 at 8 times MIC incubated for 24 hrs by crystal violet staining based analysis relative to control; format: functional
# Staphylococcus aureus [5] = test: Induction of cell damage in methicillin-resistant Staphylococcus aureus ATCC 33591 assessed as decrease in intracellular ATP concentration at MIC incubated for 30 mins by fluorescence based analysis relative to control; format: functional; design: scale not given: the % may be the effect or the level left; details: 0.5 h
# [6] = Toxicity in fasted male Sprague-Dawley rat assessed as body weight at 331 mg/kg, IG measured after 7 days (reference value: 260.5 +/- 12.7 g); format: organism-based; details: in vivo, po, 168 h, time 7 day
# [7] = Toxicity in fasted female Sprague-Dawley rat assessed as relative heart weight ratio at 500 mg/kg, IG measured for 14 days (reference value: 0.429 +/- 0.016); format: organism-based; details: in vivo, po, 336 h, time 14 day
# Staphylococcus aureus [8] = test: Induction of extracellular electrical conductivity in methicillin-resistant Staphylococcus aureus ATCC 33591 at 2 times MIC incubated for 8 hrs relative to control
# Staphylococcus aureus [9] = test: Antibacterial activity against methicillin-resistant Staphylococcus aureus ATCC 33591 infected in neutropenic Kunming mouse model assessed as reduction in infection-induced inflammatory cell inflammation in lung at 10 mg/kg, ip measured after 7 days; format: functional, organism-based; details: time 7.0 day
# Escherichia coli [10] = test: Disruption of cell membrane integrity in Escherichia coli ATCC 25922 assessed as appearance of pores on cell membrane at 4 times MIC incubated for 4 hrs by FESEM analysis; format: functional, organism-based
# [11] = Volume of distribution at steady state in fasted Sprague-Dawley rat at 1 mg/kg, iv by LC-MS/MS analysis; format: ADME, organism-based; details: in vivo, read-out: Vdss
# Staphylococcus aureus [12] = test: Antibacterial activity against methicillin-resistant Staphylococcus aureus ATCC 33591 infected in neutropenic Kunming mouse model assessed as reduction in infection-induced inflammatory cell inflammation in kidney at 10 mg/kg, ip measured after 7 days; format: functional, organism-based; details: time 7.0 day
# [13] = test system: Mesomycoplasma hyopneumoniae; test: Anti-mycoplasma activity against Mycoplasma hyopneumoniae LH-NCTC10130 assessed as bacterial growth inhibition incubated for 7 days; format: functional; details: Mesomycoplasma hyopneumoniae, LH-NCTC10130, 168 h; time 7 day; read-out: MIC
# [14] = Cytotoxicity against human HepG2 cells incubated for 24 hrs by CCK8 assay; format: toxicity, cell-based
# [15] = Toxicity in fasted female Sprague-Dawley rat assessed as animal growth rate at 100 mg/kg, IG measured for 14 days (reference value: 29.85 +/- 4.97 g); format: organism-based; details: in vivo, po, 336 h, time 14 day
# Escherichia coli [16] = test: Bactericidal activity against Escherichia coli ATCC 25922 assessed as reduction in colony count at 2 times MIC incubated for 24 hrs by time kill assay relative to control; format: functional
# Escherichia coli [17] = test: Bactericidal activity against Escherichia coli ATCC 25922 assessed as reduction in colony count at MIC incubated for 24 hrs by time kill assay relative to control; format: functional
# [18] = Toxicity in fasted female Sprague-Dawley rat assessed as relative liver weight ratio at 148 mg/kg, IG measured for 14 days (reference value: 3.199 +/- 0.062); format: organism-based; details: in vivo, po, 336 h, time 14 day
# [19] = Toxicity in fasted female Sprague-Dawley rat assessed as body weight at 100 mg/kg, IG measured on same day (reference value: 165.2 +/- 8.1 g); format: organism-based; details: in vivo, po
# Staphylococcus aureus [20] = test: Antibacterial activity against methicillin-resistant Staphylococcus aureus ATCC 33591 infected in neutropenic Kunming mouse model assessed as bacterial load reduction in kidney at 10 to 20 mg/kg, ip measured after 2 days; format: functional, organism-based; details: dose 10-20 mg/kg, time 2.0 day
# [21] = Toxicity in fasted male Sprague-Dawley rat assessed as relative spleen weight ratio at 224 mg/kg, IG measured for 14 days (reference value: 0.246 +/- 0.037); format: organism-based; details: in vivo, po, 336 h, time 14 day
# [22] = Toxicity in fasted male Sprague-Dawley rat assessed as body weight at 148 mg/kg, IG measured on same day (reference value: 212.7 +/- 13.2 g); format: organism-based; details: in vivo, po
# [23] = Clearance in fasted Sprague-Dawley rat at 1 mg/kg, iv by LC-MS/MS analysis; format: ADME, organism-based; details: in vivo
# Staphylococcus aureus [24] = test: Antibacterial activity against methicillin-resistant Staphylococcus aureus ATCC 33591 infected in neutropenic Kunming mouse model assessed as bacterial load reduction in lung at 10 to 20 mg/kg, ip measured after 2 days; format: functional, organism-based; details: dose 10-20 mg/kg, time 2.0 day
# [25] = Toxicity in fasted male Sprague-Dawley rat assessed as relative kidney weight ratio at 224 mg/kg, IG measured for 14 days (reference value: 0.820 +/- 0.072); format: organism-based; details: in vivo, po, 336 h, time 14 day
# [26] = Toxicity in fasted male Sprague-Dawley rat assessed as relative testis weight ratio at 148 mg/kg, IG measured for 14 days (reference value: 0.993 +/- 0.052); format: organism-based; details: in vivo, po, 336 h, time 14 day
# [27] = Toxicity in fasted female Sprague-Dawley rat assessed as relative heart weight ratio at 100 mg/kg, IG measured for 14 days (reference value: 0.429 +/- 0.016); format: organism-based; details: in vivo, po, 336 h, time 14 day
# Staphylococcus aureus [28] = test: Induction of cell damage in methicillin-resistant Staphylococcus aureus ATCC 33591 assessed as intracellular pH at 2 times MIC incubated for 30 mins by fluorescence based analysis (reference value: 6.34 +/- 0.10); format: functional; details: 0.5 h
# [29] = Toxicity in fasted female Sprague-Dawley rat assessed as relative liver weight ratio at 500 mg/kg, IG measured for 14 days (reference value: 3.199 +/- 0.062); format: organism-based; details: in vivo, po, 336 h, time 14 day
# [30] = Toxicity in fasted female Sprague-Dawley rat assessed as body weight at 148 mg/kg, IG measured on same day (reference value: 165.2 +/- 8.1 g); format: organism-based; details: in vivo, po
# Staphylococcus aureus [31] = test: Bactericidal activity against methicillin-resistant Staphylococcus aureus ATCC 33591 at 2 to 8 times MIC incubated for 8 to 24 hrs by time kill assay relative to control; format: functional; details: time 8-24 hrs
# Staphylococcus aureus [32] = test: Inhibition of biofilm formation of methicillin-resistant Staphylococcus aureus ATCC 33591 at 8 times MIC incubated for 24 hrs by crystal violet staining based analysis relative to control; format: functional
# [33] = Toxicity in fasted female Sprague-Dawley rat assessed as relative lung weight ratio at 148 mg/kg, IG measured for 14 days (reference value: 0.534 +/- 0025); format: organism-based; details: in vivo, po, 336 h, time 14 day
smiles,measurement,setting,value
C=C[C@]1(C)C[C@@H](OC(=O)COC(=O)/C=C/c2ccc(N(C)C)cc2)[C@]2(C)[C@H](C)CC[C@]3(CCC(=O)[C@H]32)[C@@H](C)[C@@H]1O,Activity,[1],181.4 g
same,MIC,Pseudomonas aeruginosa,32000 ng/mL
same,fold change (FC),Escherichia coli [2],6.12
same,MIC,Mycoplasmopsis synoviae,8 ng/mL
same,Ratio,[3],3.59
same,inhibition (INH),Escherichia coli [4],97.56%
same,Activity,Staphylococcus aureus [5],57.98%
same,Activity,[6],268 g
same,Ratio,[7],0.449
same,Activity,Staphylococcus aureus [8],25.63%
same,Activity,Staphylococcus aureus [9],inactive
same,Activity,Escherichia coli [10],Active
same,Vd,[11],2 L/kg
same,Activity,Staphylococcus aureus [12],inactive
same,MIC,[13],2 ng/mL
same,CC50 at 24 h,[14],> 200 µM
same,Activity,[15],31.22%
same,Activity,Escherichia coli [16],6.14 log10CFU/ml
same,Activity,Escherichia coli [17],3.99 log10CFU/ml
same,Ratio,[18],3.193
same,Activity,[19],163.6 g
same,Activity,Staphylococcus aureus [20],Active
same,Ratio,[21],0.229
same,Activity,[22],208.6 g
same,clearance,[23],35 mL/min/kg
same,Activity,Staphylococcus aureus [24],Active
same,Ratio,[25],0.808
same,Ratio,[26],0.99
same,Ratio,[27],0.438
same,pH,Staphylococcus aureus [28],2.75
same,Ratio,[29],3.203
same,Activity,[30],159.8 g
same,Activity,Staphylococcus aureus [31],100%
same,inhibition (INH),Staphylococcus aureus [32],97.64%
same,Ratio,[33],0.494

# Reference: ChEMBL document CHEMBL5625206, “Design, synthesis, and evaluation of novel pleuromutilin aryl acrylate derivatives as promising broad-spectrum antibiotics especially for combatting multi-drug resistant gram-negative bacteria” (Eur J Med Chem, 2023)
